Assay results published in ChEMBL document CHEMBL1201862, “PubChem BioAssay data set” (2004).
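Growth conditions: 96-well plates. Treatment: test compound, 48 hours, 5 concentrations. Analysis: linear interpolation between bracketing concentrations; unreached endpoints set to highest concentration. At the GI50, growth is halved.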 Activity calls are given as the source filed them. Rule as the data show it: active = GI50 up to about 1.1 µM and inactive = higher.

Assays:
Experiment in all cases: DTP human tumour cell line panel, 48 h
[1] = tested on: M14
[2] = tested on: NCI-H226
[3] = tested on: HL-60
[4] = tested on: MCF7
[5] = tested on: CAKI-1
[6] = tested on: Malme-3M
[7] = tested on: NCI/ADR-RES
[8] = tested on: SK-MEL-28
[9] = tested on: SR
[10] = tested on: SK-MEL-5
[11] = tested on: OVCAR-8
[12] = tested on: TK-10
[13] = tested on: PC-3
[14] = tested on: SK-OV-3
[15] = tested on: SW-620
[16] = tested on: OVCAR-4
[17] = tested on: LOX IMVI
[18] = tested on: NCI-H460
[19] = tested on: SN12C
[20] = tested on: SF-295

Measured: GI50

COC(=O)c1ccc(NCc2cc(OC)ccc2OC)cc1
inactive: [1] 40.6 µM | [2] 69.8 µM | [3] 26.3 µM | [4] 26.7 µM | [5] 33.7 µM | [6] 36.1 µM | [7] 30.3 µM | [8] 39.1 µM | [9] 38 µM | [10] 31.2 µM | [11] > 100 µM | [12] 24 µM | [13] 39 µM | [14] 57 µM | [15] 58.2 µM | [16] > 100 µM | [17] 24.3 µM

CC(C)N(C)C(=O)C12C3C4C1C1C2C3C41C#N (stereo unspecified)
inactive: [1] > 100 µM | [18] > 100 µM | [3] > 100 µM | [4] > 100 µM | [5] > 100 µM | [7] > 100 µM | [8] > 100 µM | [9] > 100 µM | [10] > 100 µM | [11] > 100 µM | [12] > 100 µM | [13] > 100 µM | [15] > 100 µM | [16] > 100 µM | [19] > 100 µM | [17] > 100 µM | [20] > 100 µM

O=C1CC2(CCC(O)(c3ccc4ccccc4c3)C(C(=O)c3ccc4ccccc4c3)C2)C(=O)c2ccccc2N1 (stereo unspecified)
inactive: [1] 53.1 µM | [18] 29 µM | [2] > 100 µM | [3] > 100 µM | [4] 7.59 µM | [5] > 100 µM | [6] > 100 µM | [7] > 100 µM | [8] > 100 µM | [9] > 100 µM | [10] 23 µM | [11] > 100 µM | [12] > 100 µM | [13] 4.27 µM | [14] > 100 µM | [15] > 100 µM | [19] > 100 µM | [17] > 100 µM | [20] > 100 µM

c1ccc2c(c1)c1c(n2CCOCCCN2CCCCC2)CCCC1
inactive: [1] 27.9 µM | [18] 13.9 µM | [2] 16.3 µM | [3] 10.1 µM | [4] 16.1 µM | [5] 18 µM | [6] 18 µM | [7] 17.9 µM | [8] 20.1 µM | [9] 15.2 µM | [10] 20.6 µM | [11] 17.6 µM | [12] 16.4 µM | [13] 13.1 µM | [15] 19.5 µM | [16] 12.5 µM | [19] 13.6 µM

O=C1c2cc3c(cc2CC12Cc1ccc4c(c1C2=O)CCC4)CCCC3 (stereo unspecified)
inactive: [1] > 100 µM | [18] > 100 µM | [3] > 100 µM | [4] > 100 µM | [5] > 100 µM | [6] 60 µM | [7] > 100 µM | [8] > 100 µM | [9] 60 µM | [10] > 100 µM | [11] > 100 µM | [12] > 100 µM | [13] > 100 µM | [14] > 100 µM | [15] > 100 µM | [16] > 100 µM | [17] > 100 µM | [20] > 100 µM

CCCC(=O)Nc1cc2c3c(c1)CCCN3CCC2
inactive: [1] > 10 µM | [3] > 10 µM | [4] 6.08 µM | [5] > 10 µM | [6] > 10 µM | [7] > 10 µM | [8] > 10 µM | [9] > 10 µM | [10] > 10 µM | [11] > 10 µM | [12] > 10 µM | [13] > 10 µM | [14] 9.66 µM | [15] > 10 µM | [16] > 10 µM | [19] > 10 µM | [17] > 10 µM | [20] > 10 µM

Cn1c(=O)n2n(c1=O)C(C)(C13CC4CC(CC(C4)C1)C3)C13CC4CC(CC1C4)CC23 (stereo unspecified)
inactive: [1] > 100 µM | [18] > 100 µM | [2] > 100 µM | [3] 6.76 µM | [4] > 100 µM | [5] > 100 µM | [7] > 100 µM | [8] > 100 µM | [9] > 100 µM | [10] > 100 µM | [11] > 100 µM | [12] > 100 µM | [13] > 100 µM | [14] > 100 µM | [15] > 100 µM | [19] > 100 µM | [20] > 100 µM

O=C1CCCC2=C1CC1=C(CCCC1=O)N2c1cccc([N+](=O)[O-])c1
inactive: [1] > 100 µM | [18] > 100 µM | [2] > 100 µM | [3] > 100 µM | [4] 64 µM | [5] > 100 µM | [7] > 100 µM | [8] > 100 µM | [9] > 100 µM | [10] > 100 µM | [11] > 100 µM | [12] > 100 µM | [13] > 100 µM | [14] > 100 µM | [15] > 100 µM | [16] > 100 µM | [19] > 100 µM | [17] > 100 µM
